Where two headings read alike, the source gives them in different places. Residues, ends and D or L forms follow the SMILES beside them.

Data on 11 compounds can be found in article PMC6050537, “Inhibition of low-density lipoprotein receptor degradation with a cyclic peptide that disrupts the homodimerization of IDOL E3 ubiquitin ligase” (Chemical Science, 2018).

For series [1], the target named is T1, 6× His-tagged, full-length IDOL (Homo sapiens, UniProt Q8WY64).
T1 construct: Full length IDOL (1–445) was cloned with a TEV cleavable N-terminal 6xHis tag; made in house; host or cells: Spodoptera frugiperda Sf21 (baculovirus, pFastbac1)
T1 sequence (Q8WY64 1-445): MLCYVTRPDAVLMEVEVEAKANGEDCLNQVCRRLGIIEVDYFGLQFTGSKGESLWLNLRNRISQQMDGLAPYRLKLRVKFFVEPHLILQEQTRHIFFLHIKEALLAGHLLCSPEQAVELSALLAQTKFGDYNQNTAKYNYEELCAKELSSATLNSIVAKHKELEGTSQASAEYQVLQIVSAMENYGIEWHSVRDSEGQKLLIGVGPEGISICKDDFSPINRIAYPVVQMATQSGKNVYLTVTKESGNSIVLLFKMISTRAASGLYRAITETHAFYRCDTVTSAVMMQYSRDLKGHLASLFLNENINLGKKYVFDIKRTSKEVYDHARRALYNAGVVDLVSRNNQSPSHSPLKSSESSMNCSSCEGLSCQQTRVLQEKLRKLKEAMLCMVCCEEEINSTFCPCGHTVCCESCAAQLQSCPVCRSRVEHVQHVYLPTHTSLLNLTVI
The series is described as follows: Surface plasmon resonance (SPR) affinity for IDOL. It counts as binding. To be noted: for Kd: SPR, immobilized full-length His-IDOL, saturation at highest concentrations not observed; for binding to IDOL by SPR: linear counterparts of the cyclic peptides. An excerpt: We initially assessed the affinity of the 6 selected cyclic peptides for IDOL by surface plasmon resonance (SPR). Although saturation at the highest concentrations was not observed, due to hydrophobic effects, Kd values could be determined for five peptides (Table 1). […] The hit rate for our IDOL screen is in line with that for previous SICLOPPS screens.[21],[25] It should be noted that although cyclo-CTIFLL and cyclo-CTLILF contain the same amino acids, changing the order in which these are arranged results in activity loss.
All measurements were performed on a Biacore S200 (GE healthcare) using running buffer 10 mM HEPES, 300 mM NaCl, 1 mM TCEP, 0.05% Tween 20 and 4% DMSO at pH 8.0. In brief, 6× His-tagged, full-length IDOL was immobilized on a NTA-chip (Xantec), to a final level of ∼6000 RU. The chip was pre-loaded with Ni^2+ to facilitate efficient capture of His-tagged protein onto the chip. The activity of the immobilized protein was confirmed using a reference compound.
Supplementary Figure 2. […] Saturation of binding was not observed due to the hydrophobic nature of the peptides
(1 picture or pasted object on this page, not shown here)
(In SPR one partner is held on a chip, and binding of the other changes the refractive index at the surface.)

Series [2] has as its target T2, 6× His IDOL (Homo sapiens, UniProt Q8WY64).
T2 construct: Full length IDOL (1–445) was cloned with a TEV cleavable N-terminal 6xHis tag; made in house; host or cells: Spodoptera frugiperda Sf21 (baculovirus, pFastbac1)
T2 sequence (Q8WY64 1-445): T1 sequence (Q8WY64 1-445)
The series is described as follows: Microscale thermophoresis (MST) binding to IDOL. To be noted: full length His-IDOL (44 nM). An excerpt: We sought to improve the affinity of RINGPep1 prior to assessing its effect in cells. We used alanine-scanning to identify residues that were critical to the activity of RINGpep1; we constructed 5 SICLOPPS plasmids where each amino acid (except the set cysteine, which is required for intein splicing) was replaced with alanine. These plasmids were transformed into the IDOL RTHS and assessed for disruption of IDOL homodimerization by drop-spotting. […] We therefore synthesized a handful of RINGPep1 analogues with the second position containing a non-natural phenylalanine analogue. After purification, the affinity of each of these compounds for IDOL was assessed by MST. […] The ability of RINGpep2 to disrupt IDOL homodimerization was assessed in vitro using a competition assay in which increasing concentrations of IDOL were titrated into a 45 nM solution of dye-labelled IDOL. Binding of non-labelled IDOL to dye-labelled IDOL will be observed in the MST signal, allowing the Kd of IDOL homodimerization to be quantified. Using this approach, we measured a Kd of 2.9 ± 0.1 μM for IDOL homodimerization. The experiment was repeated in the presence of RINGpep2 (100 μM), with the expectation that the apparent Kd of IDOL homodimerization would increase in the presence of an inhibitor of IDOL homodimerization.
MST was performed on a Monilith NT.115 system (Nano Temper Technologies, DE). […]
(MST reads how a fluorescent partner responds to local heating, with and without ligand.)

A short description of series [3]: Solubility (qualitative remarks). The series is classed as physicochemical.
Series [4] relates to T3, FERM domain of IDOL.
T3 construct: made in house; host or cells: E. coli BL21
As to the kind of experiment: 1H 15N HSQC NMR binding to FERM domain (negative control). From the text:
(§1) The lead candidates, cyclo-CTIFLL and cyclo-CFFLYT, were next analyzed for binding to the RING domain of IDOL by ^1H ^15N HSQC NMR. We also assessed the binding of each peptide to the FERM domain of IDOL as a negative control. […] It should be noted that the 3 residues affected by cyclo-CFFLYT (named RINGPep1) form part of the PPI interface in the crystal structure of the homodimerized RING domains of IDOL (Fig. 1c and ESI Fig. 6 ^†).[15] Furthermore, mutation of V431R coupled with a L433R mutation is known to result in a dimer deficient IDOL.[15]
(§2) ^15N-labeled RING and FERM domains were prepared for NMR experiments by buffer exchange using Amicon Ultra-4 Centrifugal Filter Units with 3 kDa molecular weight cut-off membranes. Buffer conditions for the NMR studies were 50 mM TRIS-d11 pH 7.5, 200 mM NaCl, 3 mM TCEP, 10% (v/v) D2O for the RING domain and 25 mM TRIS-d11, 25 mM NaPi, pH 7.5, 300 mM NaCl, 3 mM TCEP, 10% (v/v) D2O for the FERM domain. The protein concentrations were 80 μM and 70 μM, for the RING and FERM domain respectively. Two-dimensional NMR SOFAST-HMQC titration experiments were carried out on a Bruker 600 MHz spectrometer equipped with a cryoprobe. […]

Series [5] relates to T4, RING domain of IDOL.
T4 construct: IDOL RING domain (G356-I445) was expressed as TEV cleavable N-terminal HN6-Lysine-Tag; HN6-Lysine-Tag (TEV-cleavable) (N); made in house; host or cells: E. coli (pET vector)
As to the kind of experiment: 1H 15N HSQC NMR binding to RING domain.
From the text: as §1, §2

Series [6] relates to HepG2 cells. To be noted: concentrations up to 100 μM, 72 h. As to the method: (§3) Cell viability was assessed using the CellTiter-Glo 2.0 assay (Promega) according to the manufacturer's instructions. Briefly, cells were plated at a density of 3.3 × 10^4 cells per well in a 96 well plate and incubated overnight (37 °C, 5% CO2). Cells were treated with increasing concentrations of inhibitor and incubated in lipoprotein depleted serum for 72 h (37 °C, 5% CO2). The plate was equilibrated to room temperature for 30 min prior to the addition an equal volume of CellTiter-Glo 2.0 (Promega) reagent to media. The contents were mixed for 2 min on an orbital shaker to induce cell lysis and the plate incubated at room temperature for 10 min prior to the detection of a luminescent signal.
(§4) Supplementary Figure 11. Cellular viability following peptide treatment. The viability of
(§5) (a ) He pG2 a nd (b ) DIDOL He p G2 cells was determined following treatment with increasing
(§6) concentrations of TAT-RINGPe p2 and TAT-ScramPep (100 µM). […]

Series [7] has as its system ΔIDOL HepG2 cells. To be noted: concentrations up to 100 μM, 72 h. As to the method: as §3, §4, §5, §6

A word on the Kd: it is a measure of binding affinity in units of concentration. For `CC[C@H](C)[C@@H]1NC(=O)[C@H](CC(C)C)NC(=O)[C@H]([C@@H](C)O)NC(=O)[C@H](CS)NC(=O)[C@H](Cc2ccccc2)NC(=O)[C@H](CC(C)C)NC1=O` [cyclo-CTLILF] (HELM PEPTIDE1{C.T.L.I.L.F}$PEPTIDE1,PEPTIDE1,1:R1-6:R2$$$V2.0), the Kd in series [1] (read-out: Kd) is approximately 10000 µM. With cyclo-CYLFT[Cha] [ScramPep], in series [2], the “binding to IDOL by MST” value is “did not bind”. For `CC[C@H](C)[C@@H]1NC(=O)[C@H](CC(C)C)NC(=O)[C@H](Cc2ccccc2)NC(=O)[C@H](CC(C)C)NC(=O)[C@H](CCCNC(=N)N)NC(=O)[C@H](CS)NC1=O` [cyclo-CRLFLI] (HELM PEPTIDE1{C.R.L.F.L.I}$PEPTIDE1,PEPTIDE1,1:R1-6:R2$$$V2.0), the dissociation constant (Kd) in series [1] (read-out: Kd) is approximately 3000 µM. For the compound “CFFLYT [linear counterpart of cyclo-CFFLYT]”, the “binding to IDOL by SPR” value in series [1] is given as “no binding observed”. On to `CC[C@H](C)[C@@H]1NC(=O)[C@H](Cc2ccccc2)NC(=O)[C@H](C(C)C)NC(=O)[C@H]([C@@H](C)O)NC(=O)[C@H](CS)NC(=O)[C@H]([C@@H](C)CC)NC1=O` [cyclo-CTVFII] (HELM PEPTIDE1{C.T.V.F.I.I}$PEPTIDE1,PEPTIDE1,1:R1-6:R2$$$V2.0), for which, in series [1], the Kd entry is listed as “No activity”. Take “CTIFLL [linear counterpart of cyclo-CTIFLL]”: in series [1], the “binding to IDOL by SPR” value is listed as “no binding observed”. For the compound `CC(C)C[C@@H]1NC(=O)[C@H](CC2CCCCC2)NC(=O)[C@H](Cc2ccccc2)NC(=O)[C@H](CS)NC(=O)[C@H]([C@@H](C)O)NC(=O)[C@H](Cc2ccc(O)cc2)NC1=O` [RINGPep2, cyclo-CF-Cha-LYT] (HELM PEPTIDE1{C.F.[Cha].L.Y.T}$PEPTIDE1,PEPTIDE1,1:R1-6:R2$$$V2.0), the “solubility in the assay buffer” value in series [3] (autoubiquitination assay buffer) is recorded as “poor solubility”. Further, the water solubility result in series [3] (compared with the 3-(1-naphthyl)-L-alanine analogue) is “marginally better”. `CC[C@H](C)[C@@H]1NC(=O)[C@H]([C@@H](C)O)NC(=O)[C@H](CS)NC(=O)[C@H](CC(C)C)NC(=O)[C@H](CC(C)C)NC(=O)[C@H](Cc2ccccc2)NC1=O` [cyclo-CTIFLL] (HELM PEPTIDE1{C.T.I.F.L.L}$PEPTIDE1,PEPTIDE1,1:R1-6:R2$$$V2.0): the “chemical shift changes, FERM domain of IDOL” value in series [4] was “did not observe any chemical shift changes”. In series [1] (read-out: Kd), the Kd stood at 20.9 ± 11 µM. For the same compound, in series [5], the “chemical shift changes, RING domain of IDOL” value is recorded as “did not observe any chemical shift changes”. Turning to `CC(C)C[C@@H]1NC(=O)[C@H](CC2CCCCC2)NC(=O)[C@H](Cc2ccccc2)NC(=O)[C@H](CSSC[C@H](N)C(=O)NCC(=O)N[C@@H](CCCNC(=N)N)C(=O)N[C@@H](CCCCN)C(=O)N[C@@H](CCCCN)C(=O)N[C@@H](CCCNC(=N)N)C(=O)N[C@@H](CCCNC(=N)N)C(=O)N[C@@H](CCC(N)=O)C(=O)N[C@@H](CCCNC(=N)N)C(=O)N[C@@H](CCCNC(=N)N)C(=O)N[C@@H](CCCNC(=N)N)C(=O)N2CCC[C@H]2C(=O)N2CCC[C@H]2C(=O)N[C@@H](CCC(N)=O)C(=O)O)NC(=O)[C@H]([C@@H](C)O)NC(=O)[C@H](Cc2ccc(O)cc2)NC1=O` [Tat-RINGPep2], the toxicity result in series [6] and in series [7] was “no toxicity” in each case.

Regarding `CC(C)C[C@@H]1NC(=O)[C@H](Cc2ccc(O)cc2)NC(=O)[C@H](CSSC[C@H](N)C(=O)NCC(=O)N[C@@H](CCCNC(=N)N)C(=O)N[C@@H](CCCCN)C(=O)N[C@@H](CCCCN)C(=O)N[C@@H](CCCNC(=N)N)C(=O)N[C@@H](CCCNC(=N)N)C(=O)N[C@@H](CCC(N)=O)C(=O)N[C@@H](CCCNC(=N)N)C(=O)N[C@@H](CCCNC(=N)N)C(=O)N[C@@H](CCCNC(=N)N)C(=O)N2CCC[C@H]2C(=O)N2CCC[C@H]2C(=O)N[C@@H](CCC(N)=O)C(=O)O)NC(=O)[C@H](CC2CCCCC2)NC(=O)[C@H]([C@@H](C)O)NC(=O)[C@H](Cc2ccccc2)NC1=O` [Tat-ScramPep], the toxicity entry in series [6] and in series [7] was “no toxicity” in each case.

For the compound `CC[C@H](C)[C@@H]1NC(=O)[C@H](C(C)C)NC(=O)[C@H](C(C)C)NC(=O)[C@H](CO)NC(=O)[C@H](CS)NC(=O)[C@H](CC(C)C)NC1=O` [cyclo-CSVVIL] (HELM PEPTIDE1{C.S.V.V.I.L}$PEPTIDE1,PEPTIDE1,1:R1-6:R2$$$V2.0), in series [1] (read-out: Kd), the Kd is approximately 1000 µM.
